Measurements reported in ChEMBL document CHEMBL1255477, “In vitro properties of BAL30072, a novel siderophore sulfactam with activity against multiresistant gram-negative bacilli” (Antimicrob Agents Chemother, 2010).

Legend:
[1] = tested on: Pseudomonas aeruginosa; experiment: Antimicrobial activity against Pseudomonas aeruginosa BA(C2-107) selected after 25 ug/ml of compound exposure by broth dilution method; format: functional
[2] = tested on: Pseudomonas aeruginosa; experiment: Antimicrobial activity against mexAB-oprM protein and mexZ deficient Pseudomonas aeruginosa PAO267 by broth dilution method; format: functional
[3] = tested on: Pseudomonas aeruginosa; experiment: Antimicrobial activity against mexAB-oprM protein and mexCD-oprJ deficient Pseudomonas aeruginosa PAO253 overexpressing MexEF-OprN gene by broth dilution method; format: functional
[4] = tested on: Pseudomonas aeruginosa; experiment: Antimicrobial activity against mexAB-oprM protein and mexCD-oprJ deficient Pseudomonas aeruginosa PAO238 by broth dilution method; format: functional
[5] = tested on: Pseudomonas aeruginosa; experiment: Antimicrobial activity against Pseudomonas aeruginosa BA by broth dilution method; format: functional
[6] = tested on: Acinetobacter sp.; experiment: Antimicrobial activity against Acinetobacter sp. by broth dilution method; format: functional
[7] = tested on: Pseudomonas aeruginosa; experiment: Antimicrobial activity against Pseudomonas aeruginosa by broth dilution method; format: functional
[8] = tested on: Pseudomonas aeruginosa; experiment: Antimicrobial activity against Pseudomonas aeruginosa B4 by broth dilution method; format: functional
[9] = tested on: Pseudomonas aeruginosa; details: PAO1
Description: Antimicrobial activity against Pseudomonas aeruginosa PAO1 by broth dilution method

[10] = tested on: Pseudomonas aeruginosa; experiment: Antimicrobial activity against Pseudomonas aeruginosa BA(C1-106) selected after 25 ug/ml of compound exposure by broth dilution method; format: functional
[11] = tested on: Pseudomonas aeruginosa; experiment: Antimicrobial activity against oprD protein deficient Pseudomonas aeruginosa C2 by broth dilution method; format: functional
[12] = tested on: Pseudomonas aeruginosa; experiment: Antimicrobial activity against mexAB-oprM, mexCD-oprJ, mexEF-oprN, mexJK, mexXY, opmH and pscC gene deficient Pseudomonas aeruginosa PAO750 by broth dilution method; format: functional
[13] = substrate: C[C@H]1[C@H](NC(=O)/C(=N\OC(C)(C)C(=O)O)c2csc(N)n2)C(=O)N1S(=O)(=O)O; details: Escherichia coli; ATCC 25922
Description: (§1) Ratio of Kcat to Km for Escherichia coli ATCC 25922 AmpC

[14] = substrate: CC1(C)[C@H](NC(=O)/C(=N\OCc2cc(=O)c(O)cn2O)c2csc(N)n2)C(=O)N1OS(=O)(=O)O; details: Escherichia coli; ATCC 25922
Description: as §1

[15] = substrate: C[C@H]1[C@H](NC(=O)/C(=N\OC(C)(C)C(=O)O)c2csc(N)n2)C(=O)N1S(=O)(=O)O; details: Escherichia coli; ATCC 25922; remark: listed apart in the source
Description: (§2) Binding affinity to Escherichia coli ATCC 25922 AmpC

[16] = substrate: CC1(C)[C@H](NC(=O)/C(=N\OCc2cc(=O)c(O)cn2O)c2csc(N)n2)C(=O)N1OS(=O)(=O)O; details: Escherichia coli; ATCC 25922; remark: listed apart in the source
Description: as §2

Row | Molecule | MIC [1] [µg/mL] | MIC [2] [µg/mL] | MIC [3] [µg/mL] | MIC [4] [µg/mL] | MIC [5] [µg/mL] | MIC50 [6] [µg/mL] | MIC90 [6] [µg/mL] | MIC50 [7] [µg/mL] | MIC90 [7] [µg/mL] | MIC [8] [µg/mL] | MIC [9] [µg/mL] | MIC [10] [µg/mL] | MIC [11] [µg/mL] | MIC [12] [µg/mL] | kcat/Km [13] [M⁻¹ s⁻¹] | kcat/Km [14] [M⁻¹ s⁻¹] | Km [15] [µM] | kcat [15] [s⁻¹] | Km [16] [µM] | kcat [16] [s⁻¹]
1 | POLYMYXIN B | 4 | 8 | 4 | 8 | 4 | 4 | 32 | 4 | 8 | 2 | 8 | 2 | 4 | 8 | – | – | – | – | – | –
2 | MFKTTLCALLITASCSTFAA [AmpC (Escherichia coli), Q83TT7] | – | – | – | – | – | – | – | – | – | – | – | – | – | – | 2.9 | 38 | 21 | 6e-05 | 100 | 0.004
